Assay results: patent US10590100B2, “Benzofuran derivatives for the treatment of CNS and other disorders” (WARNER BABCOCK INSTITUTE FOR GREEN CHEMISTRY, priority 2015, dated 2020)

Columns and labels:
Type in all cases: biochemical
[1] = biological target: T1, zinc-induced Aβ42 aggregates (Homo sapiens, UniProt P05067); test: Bis-ANS fluorescence assay of disaggregation of zinc-induced Aβ42 aggregates; details: for EC50: Aβ42 15 μM, bis-ANS 15 μM, Tris-buffered saline, with 15 μM Zn2+
T1 construct: 15 μM Aβ42 peptide in TrisHCl—NaCl buffer
Experimental: Bis-ANS was used as a fluorescent marker for Aβ42 aggregation and disaggregation so as to determine the efficacy, EC50, of each test compound in the presence or absence of zinc(II). Baseline fluorescence was established by monitoring the fluorescence of 15 μM bis-ANS in a TrisHCl-NaCl buffer (TrisHCl-NaCl buffer: 0.50 mM TrisHCl, 1.50 mM NaCl, pH 7.4) that contains 15 μM Aβ42. After 5 minutes, Zn(II) (as zinc(II) sulfate, 15 μM final concentration) was added to the Aβ42 solution, and the fluorescence intensity monitored for 24-40 minutes. Fluorescence increases following the addition of Zn(II) during the aggregation period. After the aggregation period, varying concentrations (60, 15, 3.75, 0.938, 0.234, or 0 μM final concentration) of a test compound were added, and the fluorescence intensity again monitored until it plateaus, typically 20-24 min. […] Fluorescence intensities were determined at 390 nm excitation wavelength/490 nm emission wavelength with a 475 nm cutoff. […] The responses I0-If, were calculated as the difference in the final fluorescent intensity If, c at the end of the assay for each concentration as compared to the final intensity I0 determined for the sample with no added derivative. The responses were normalized to the maximum response […] which is the final fluorescent intensity of the sample containing 60 μM test compound, Normalized response=(I0-If)/(I0-[…]). The fluorescent intensities were then fit to a 4-parameter sigmoidal logistic function to determine EC50. In the presence of soluble Aβ42, zinc(II) induces aggregation within milliseconds. This aggregation is detected by an increase in bis-ANS fluorescence. Disaggregation of zinc-dependent aggregates can be detected by a decrease in the fluorescence of bis-ANS in the assay. FIG. 1 depicts the zinc(II) induced Aβ42 aggregation and the disaggregation by BC-147 of the zinc-induced aggregates, measured by bis-ANS fluorescence assay.

[2] = biological target: T2, zinc-independent Aβ42 aggregates (Homo sapiens, UniProt P05067); test: Bis-ANS fluorescence assay of disaggregation of zinc-independent Aβ42 aggregates; details: for EC50: Aβ42 15 μM, bis-ANS 15 μM, Tris-buffered saline, without Zn2+; for Change in bis-ANS fluorescence after addition of compound to zinc-independent Aβ42 aggregates: 15 μM Aβ42, no Zn2+, compound at 60.0 to 0.234 μM (FIG. 2)
T2 construct: 15 μM Aβ42 peptide in TrisHCl—NaCl buffer
Experimental: Bis-ANS was used as a fluorescent marker for Aβ42 aggregation and disaggregation so as to determine the efficacy, EC50, of each test compound in the presence or absence of zinc(II). Baseline fluorescence was established by monitoring the fluorescence of 15 μM bis-ANS in a TrisHCl-NaCl buffer (TrisHCl-NaCl buffer: 0.50 mM TrisHCl, 1.50 mM NaCl, pH 7.4) that contains 15 μM Aβ42. After 5 minutes, Zn(II) (as zinc(II) sulfate, 15 μM final concentration) was added to the Aβ42 solution, and the fluorescence intensity monitored for 24-40 minutes. Fluorescence increases following the addition of Zn(II) during the aggregation period. After the aggregation period, varying concentrations (60, 15, 3.75, 0.938, 0.234, or 0 μM final concentration) of a test compound were added, and the fluorescence intensity again monitored until it plateaus, typically 20-24 min. […] Fluorescence intensities were determined at 390 nm excitation wavelength/490 nm emission wavelength with a 475 nm cutoff. […] The responses I0-If, were calculated as the difference in the final fluorescent intensity If, c at the end of the assay for each concentration as compared to the final intensity I0 determined for the sample with no added derivative. The responses were normalized to the maximum response […] which is the final fluorescent intensity of the sample containing 60 μM test compound, Normalized response=(I0-If)/(I0-[…]). The fluorescent intensities were then fit to a 4-parameter sigmoidal logistic function to determine EC50. A representative example of disaggregation of spontaneously formed, zinc-independent Aβ42 aggregates by a test compound, BC-147, is given in FIG. 2. In the absence of zinc(II), soluble Aβ42 undergoes zinc-independent aggregation more slowly than aggregation in the presence of zinc(II). This spontaneous, zinc-independent aggregation of Aβ42 is detected by an increase in bis-ANS fluorescence. […] FIG. 2 depicts the disaggregation by BC-147 of the spontaneously formed, zinc-independent Aβ42 aggregates.

amylin aggregates = biological target: T3, amylin aggregates (Homo sapiens, UniProt P10997); test: Bis-ANS fluorescence assay of disaggregation of amylin aggregates; details: 15 μM amylin; for EC50: bis-ANS 15 μM, Tris-buffered saline, compound added after 24 hr aggregation
T3 construct: Amylin (15 μM) in TrisHCl—NaCl buffer was allowed to aggregate for 24 hr
T3 sequence (P10997 34-70 limits assumed): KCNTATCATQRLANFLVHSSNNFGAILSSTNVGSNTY
Experimental: Amylin (15 μM) in TrisHCl—NaCl buffer was allowed to aggregate for 24 hr, while monitoring the fluorescence of bis-ANS (15 μM) as a marker of amylin aggregation. Typically, the fluorescence increases during the aggregation period. After the aggregation period, varying concentrations (60, 15, 3.75, 0.938, 0.234, or 0 μM final concentration) of a test compound were then added to the sample, and the fluorescence intensity monitored until it plateaus, typically an additional 20-24 hr. Controls were simultaneously run in which the test compound was added to a sample that contained Bis-ANS but no amylin so as to determine any interfering intrinsic fluorescence of the test compound itself (see Table 1).
A series of assays was also carried out so as to determine the EC50 for EGCG, by addition of 60, 15, 3.75, 0.938, 0.234, or 0 μM EGCG after 24 hours, similarly to the methods used to assay the test compounds.

T2 sequence (P05067 672-713 limits assumed): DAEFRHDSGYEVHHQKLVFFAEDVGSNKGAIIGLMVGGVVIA
T1 sequence (P05067 672-713 limits assumed): as above

Row | SMILES | EC50 [1] [nM] | EC50 [2] [nM] | EC50 (amylin aggregates) [nM] | Change in bis-ANS fluorescence after addition of compound to zinc-induced Aβ42 aggregates ([1]; 15 μM Aβ42, 15 μM Zn2+, compound at 60.0, 15.0, 3.75, 0.938 or 0.234 μM (FIG. 1)) | Change in bis-ANS fluorescence after addition of compound to zinc-independent Aβ42 aggregates [2] | Change in bis-ANS fluorescence after addition of compound to amylin aggregates (amylin aggregates; compound at 60.0, 15.0, 3.75, 0.938 or 0.234 μM added at about 1440 min (FIG. 5))
1 | N#CC(=Cc1cc2ccc(N(c3ccccc3)c3ccccc3)cc2o1)C(=O)O [BC-146, 2-cyano-3-(6-(diphenylamino)benzofuran-2-yl)acrylic acid] | 540 | 4900 | 520 | – | – | –
2 | N#CC(=Cc1ccc(-c2cc3ccc(N(c4ccccc4)c4ccccc4)cc3o2)cc1)C(=O)O [BC-147, 2-cyano-3-(4-(6-(diphenylamino)benzofuran-2-yl)phenyl)acrylic acid] | 3760 | 11500 | 190 | decrease in bis-ANS fluorescence | decrease in bis-ANS fluorescence | –
3 | N#CC(=Cc1ccc2cc(-c3ccc(N(c4ccccc4)c4ccccc4)cc3)oc2c1)C(=O)O [BC-149, 2-cyano-3-(2-(4-(diphenylamino)phenyl)benzofuran-6-yl)acrylic acid] | 660 | 500 | 150 | – | – | –
4 | N#CC(=Cc1ccc2oc(-c3ccc(N(c4ccccc4)c4ccccc4)cc3)cc2c1)C(=O)O [BC-151, 2-cyano-3-(2-(4-(diphenylamino)phenyl)benzofuran-5-yl)acrylic acid] | 4930 | 610 | 460 | – | – | –
5 | N#CC(=Cc1ccc2cc(-c3ccc(N(c4ccccc4)c4ccccc4)cc3)oc2c1)C(N)=O [BC-152, 2-cyano-3-(2-(4-(diphenylamino)phenyl)benzofuran-6-yl)acrylamide] | 2700 | 1110 | 800 | – | – | –
6 | N#CC(C#N)=Cc1ccc2cc(-c3ccc(N(c4ccccc4)c4ccccc4)cc3)oc2c1 [BC-154, 2-((2-(4-(diphenylamino)phenyl)benzofuran-6-yl)methylene)malononitrile] | – | – | 2090 | – | – | –
7 | NC(=O)C(=Cc1ccc2cc(-c3ccc(N(c4ccccc4)c4ccccc4)cc3)oc2c1)C(N)=O [BC-155, 2-((2-(4-(diphenylamino)phenyl)benzofuran-6-yl)methylene)malonamide] | 1090 | 460 | 180 | – | – | –
8 | COc1ccc(N(c2ccc(OC)cc2)c2ccc(-c3cc4ccc(C=C(C#N)C(=O)O)cc4o3)cc2)cc1 [BC-156, 3-(2-(4-(bis(4-methoxyphenyl)amino)phenyl)benzofuran-6-yl)-2-cyanoacrylic acid] | 1710 | 3010 | 310 | – | – | –
9 | CC(C)(C)c1ccc(N(c2ccc(-c3cc4ccc(C=C(C#N)C(=O)O)cc4o3)cc2)c2ccc(C(C)(C)C)cc2)cc1 [BC-158, 3-(2-(4-(bis(4-(tert-butyl)phenyl)amino)phenyl)benzofuran-6-yl)-2-cyanoacrylic acid] | – | – | 1730 | – | – | decrease in bis-ANS fluorescence
10 | N#CC(=Cc1ccc2cc(-c3ccc(N(c4cccnc4)c4cccnc4)cc3)oc2c1)C(=O)O [BC-159, 2-cyano-3-(2-(4-(di(pyridin-3-yl)amino)phenyl)benzofuran-6-yl)acrylic acid] | 2220 | 5590 | 1930 | – | – | –
11 | COC(=O)C(C#N)=Cc1ccc2cc(-c3ccc(N(c4ccccc4)c4ccccc4)cc3)oc2c1 [BC-161, methyl 2-cyano-3-(2-(4-(diphenylamino)phenyl)benzofuran-6-yl)acrylate] | 4120 | 3220 | 2540 | – | – | –
12 | N#CC(=Cc1ccc2cc(-c3ccc(N(c4ccccc4)c4ccccc4)cc3)oc2c1)C(=O)NCc1ccccn1 [BC-163, 2-cyano-3-(2-(4-(diphenylamino)phenyl)benzofuran-6-yl)-N-(pyridin-2-ylmethyl)acrylamide] | 2230 | 1760 | 1830 | – | – | –
13 | N#CC(=Cc1ccc2cc(-c3ccc(N4CCCCC4)cc3)oc2c1)C(=O)O [BC-166, 2-cyano-3-(2-(4-(piperidin-1-yl)phenyl)benzofuran-6-yl)acrylic acid] | – | – | 610 | – | – | –
14 | N#CC(=Cc1ccc2cc(-c3ccc(N4CCOCC4)cc3)oc2c1)C(=O)O [BC-169, 2-cyano-3-(2-(4-morpholinophenyl)benzofuran-6-yl)acrylic acid] | – | – | 840 | – | – | –
15 | CCN(CC)c1ccc(-c2cc3ccc(C=C(C#N)C(=O)O)cc3o2)cc1 [BC-173, 2-cyano-3-(2-(4-(diethylamino)phenyl)benzofuran-6-yl)acrylic acid] | – | – | 210 | – | – | –
16 | CN(c1ccccc1)c1ccc(-c2cc3ccc(C=C(C#N)C(=O)O)cc3o2)cc1 [BC-175, 2-cyano-3-(2-(4-(methyl(phenyl)amino)phenyl)benzofuran-6-yl)acrylic acid] | – | – | 140 | – | – | –
17 | O=C(O)CN(CCN(CC(=O)O)CC(=O)O)CC(=O)O [EDTA, reference compound] | 46100 | – | – | – | no effect | –
18 | O=C(O[C@@H]1Cc2c(O)cc(O)cc2O[C@@H]1c1cc(O)c(O)c(O)c1)c1cc(O)c(O)c(O)c1 [EGCG, Epigallocatechin gallate, reference compound] | – | – | 860 | – | – | –
